Several values for one entry are separate records, joined by “and”; a condition that tells them apart may be missing. Identical values can stand only once. Activity calls are given as the source filed them.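 How the source made its calls: active means compounds giving half or more protection of infected cells from virus-caused growth loss, again on retest; inactive means the rest.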
Test system: CEM cells HIV-1 protection, formazan growth assay
Assay: NCI AIDS Antiviral Assay
Details: for IC50: measured here: growth of uninfected CEM cells
Method in brief: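 Steps: treat uninfected and HIV-1-infected human CEM cells at five drug levels; quantify growth by soluble formazan; retest any compound reaching 50% protection; classify actives from the retest.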

Structure (SMILES)	EC50	IC50	outcome
Oc1ccc2c(c1)c1c(n2CCN2CCOCC2)-c2ccccc2CC1	> 200 µM	30.2 µM	
CSC1=Nc2cc3c(cc2C(=O)N2CC(OC(C)=O)CC12)OCO3 (configuration not stated)	> 200 µM	> 200 µM	
Nc1c(S(=O)(=O)O)cc(Nc2ccc(S(=O)(=O)O)c(Nc3nc(Cl)nc(Cl)n3)c2)c2c1C(=O)c1ccccc1C2=O	> 200 µM	> 200 µM	
Cc1ccc(NC(=S)NNC(=O)c2cc(-c3ccccc3)nc3ccccc23)cc1C	> 200 µM	12.6 µM	
COc1cc(CNC(=O)CCCCCCCC/C=C/Br)ccc1O	> 200 µM	21.4 µM	
Cc1cc[n+]2cc(-c3ccc(/C=N/N=C(N)N)cc3)n(C)c2c1	52.5 µM	55 µM	
O=C(CCc1cc(-c2ccco2)n(-c2ccc([N+](=O)[O-])cc2[N+](=O)[O-])n1)Nc1ccccc1	> 41.7 µM	> 41.7 µM	
COCN1C(=O)[C@@H]2CCCN2C(=O)c2cc([N+](=O)[O-])ccc21	> 200 µM	102 µM	
CCN(CC)C(=O)N1CCN(C)CC1	> 200 µM	> 200 µM	inactive
Ic1nc(-c2ccccc2)[nH]c1I			inactive
CCN(CC)c1ccc(C(=C2C=CC(=[N+](CC)CC)C=C2)c2ccccc2)cc1			inactive
Cc1ccc(/C([O-])=C(\C(=S)Nc2cccc(Cl)c2)[n+]2ccccc2)cc1	> 200 µM	25.1 µM	
CN1C(=O)CN(NC(=O)C2=C(O)c3ccc(Br)cc3S(=O)(=O)N2)C1=S	> 200 µM	51.3 µM	
Cc1ccccc1N1C(=O)[N+](C)(C)N=C1[O-]	> 1150 µM	> 1150 µM	
O=[N+]([O-])c1ccc(C2OCC3CSCN32)cc1 (configuration not stated)	> 39.8 µM	> 39.8 µM	
CCCCCCCCCCCc1c(O)c(O)cc2nc3ccc(SCCC)cc3nc12	> 16.2 µM	9.33 µM	
FC(F)(F)c1ccc2nc(Nc3ccc(Cl)c(Cl)c3)c(-c3ccccc3)nc2c1	> 12 µM	8.13 µM	
COc1cccc2c1OC(c1ccc(C#N)cc1)C([N+](=O)[O-])=C2 (configuration not stated)	> 200 µM	1.58 µM	
c1ccc(N2N=NC3C4CCC(C4)C32)cc1 (configuration not stated)	> 200 µM	> 200 µM	
NC(CCCNCc1ccccc1)C(=O)O (configuration not stated)	> 562 µM	> 562 µM	
COc1cc(C=O)c(-c2c(C=O)ccc3c2OCO3)c(OC)c1OC	> 135 µM	20 µM	
CCOC(=O)CC1CN(Cc2ccccc2)CCC1=O (configuration not stated)			inactive
CCN(C)N=Nc1ccc(C(N)=O)cc1	> 1200 µM	617 µM	

Structure (SMILES)	EC50	IC50	outcome
O=C(CC(=O)C(=O)CC(=O)OCc1ccccc1)OCc1ccccc1	> 105 µM	89.1 µM	
O=C(O)C1(C(=O)O)CC23CCC2(COC3)C1 (configuration not stated)			inactive
Cn1c(-c2cccs2)cc(-c2cccs2)c1-c1cccs1	> 200 µM	33.9 µM	
Cc1ccc(NC(=O)C(=O)Cc2nc3ccccc3o2)c(C)c1	> 12.3 µM	> 12.3 µM	
c1ccc2c(c1)nnn2CNc1ccc(N2CCCCC2)cc1	> 200 µM	51.3 µM	
CN1NC(c2ccccc2)=C(C#N)C(=O)CC1c1ccccc1 (configuration not stated)	> 200 µM	93.3 µM	
O=C(Nc1ccc(Cl)cc1)NC(O)C(Cl)(Cl)Cl (configuration not stated)	> 200 µM	148 µM	
O=C(OCCN1CCCC12CCCCC2)C(c1ccccc1)C1C=CCC1 (configuration not stated)	> 200 µM	24.5 µM	
Cc1cc(CC(O)c2ccc(Cl)c(Cl)c2)nc(=O)[nH]1 (configuration not stated)	> 9.12 µM	> 9.12 µM	
OC1(c2cccnc2)c2ccccc2Oc2ccccc21	> 200 µM	79.4 µM	
CCOC(=O)CCC1(C(=O)OCC)CCCCC1=O (configuration not stated)	> 251 µM	> 251 µM	
Cc1c2sc3ccccc3[nH]c2nc2[nH]c3ccccc3sc12	> 38 µM	14.8 µM	
O=C1[C@@H]2C(c3cccc([N+](=O)[O-])c3)=NO[C@@H]2C(=O)N1c1ccc(Cc2ccc(N3C(=O)[C@H]4C(c5cccc([N+](=O)[O-])c5)=NO[C@H]4C3=O)cc2)cc1	> 38 µM	> 38 µM	
NC(=O)c1ncn(C2OC(CO)C(F)C2O)c1N (configuration not stated)	> 200 µM	> 200 µM	
O=C1CC(c2ccsc2)n2cccc21 (configuration not stated)	186 µM	> 200 µM	
O=C1CSC(c2ccccc2[N+](=O)[O-])N1c1ccc(-n2c(-c3ccccc3)nc3ccccc3c2=O)cc1 (configuration not stated)	> 200 µM	126 µM	
O=C(O)C(O)(c1ccccc1)c1ccsc1 (configuration not stated)	> 200 µM	> 200 µM	
CCCN(CCC)C(=S)N/N=C/c1cccc(C)n1	> 200 µM	0.0631 µM	
Clc1ccc2c(NCCCCCCNc3ccnc4cc(Cl)ccc34)ccnc2c1	> 14.1 µM	2.4 µM	
Clc1ccc(C2=Cc3nc2c(-c2ccccc2)c2ccc([nH]2)c(-c2ccccc2)c2nc(c(-c4ccccc4)c4ccc([nH]4)c3-c3ccccc3)C=C2)cc1	> 200 µM	> 200 µM	
COc1cc(/C=C2\CCc3ccccc3C2=O)ccc1O	> 200 µM	9.33 µM	
CC1=CO[C@@H]2O[C@@]3(C)CC[C@H]4[C@H](C)CC[C@@H]1[C@@]24OO3	> 200 µM	178 µM	
C=C1CCC2(C)[C@H](C)CC[C@H](O)C2(CCC=C(C)C)[C@@H]1Cc1c[nH]c2ccccc12 (some centres not stated)			inactive

Structure (SMILES)	EC50	IC50	outcome
COc1ccc(C2=Nc3c(nc(OC)[nH]c3=O)NC(c3ccccc3)C2)cc1 (configuration not stated)			inactive
COS(=O)c1cc(Cl)cc(Cl)c1OC(=O)CSSCC(=O)Oc1c(Cl)cc(Cl)cc1S(=O)OC (configuration not stated)			inactive
Cc1ccc(C2(c3ccc(Cl)cc3)c3ccccc3C3=NCCN32)cc1 (configuration not stated)	> 200 µM	11 µM	
COc1ccc(C(C#N)NC23CC4CC(CC(C4)C2)C3)cc1OC (configuration not stated)			inactive
CN(C)C(=O)C(CC[N+]1(C)CCCC12CCCCC2)(c1ccccc1)c1ccccc1 (configuration not stated)	> 200 µM	74.1 µM	
CC(C)N(C(=O)C12C3C4C5C3C1(C(=O)O)C5C42)C(C)C (configuration not stated)	> 661 µM	> 661 µM	
COc1cc2c3c(c1)[nH]c(=S)n3C(=O)C(C)S2 (configuration not stated)	> 200 µM	141 µM	
NC(N)=NN=C1CCCCC1	> 200 µM	> 200 µM	
CC#CC(O)(C(=O)OC1CC(C)N(C)C(C)(C)C1)C1CCCC1 (configuration not stated)	> 200 µM	> 200 µM	
N=C(N)SCC1OCOC1C1OCOC1CSC(=N)N (configuration not stated)	> 776 µM	> 776 µM	
C1CCN(C2OC3C(COC3N3CCCCC3)OC2OC2CCO[C@@H]2N2CCCCC2)CC1 (some centres not stated)	> 38.9 µM	3.39 µM	
CCCCCC(=Nc1n[nH]nc1C(N)=O)OCC	> 200 µM	> 200 µM	
COc1cccc(NC(=O)c2c(SC)n[nH]c2N)c1	> 200 µM	> 200 µM	
O=CC1(c2ccccc2)NC(=O)NC1=O (configuration not stated)	> 200 µM	> 200 µM	
CCN(CC)CCCC(C)Nc1cc(C)nc2c1ccc1c2ccc2c(NC(C)CCCN(CC)CC)cc(C)nc21 (configuration not stated)	> 66.1 µM	3.98 µM	
CC(=O)OCC1OC(n2cc([N+](=O)[O-])c(=O)[nH]c2=O)C(OC(C)=O)C(OC(C)=O)C1OC(C)=O (configuration not stated)	> 513 µM	> 513 µM	
CCCC(=N\N=C(N)N)/C(C)=N/N=C(N)N	> 79.4 µM	> 79.4 µM	
COc1ccccc1N=NC1=C2Nc3ccccc3N=C1N(c1ccccc1OC)C(=S)N2c1ccccc1C			inactive
O=C1c2ccccc2C(=O)c2c(NCCCNCCO)ccc(NCCCNCCO)c21			inactive
CCc1nnc(CC)n1-n1c(Cc2ccccc2)n[nH]c1=O	> 200 µM	> 200 µM	
O=c1c(-c2c(O)cc(O)c3c2O[C@H](c2ccc(O)cc2)[C@@H](O)C3)c(-c2ccc(O)cc2)oc2cc(O)cc(O)c12	> 200 µM and 31.6 µM	75.9 µM and > 100 µM	
CCOCC(Br)C(OCC)OCC (configuration not stated)			inactive
O=C1CCCCCCCCCCOC(=O)CCCCCCCCCCO1	> 10.2 µM	> 10.2 µM	

Structure (SMILES)	EC50	IC50	outcome
O=CN1CCN(c2ccc3ccc(=O)[nH]c3n2)CC1	> 200 µM	> 200 µM	
O=C(CC1(O)C(=O)Nc2c(Cl)ccc(Cl)c21)c1ccc(Cl)cc1 (configuration not stated)	> 51.3 µM	> 51.3 µM	
Nc1ccccc1S(=O)c1ccccc1 (configuration not stated)	> 275 µM	> 275 µM	
O=[N+]([O-])c1cccc2nc3ccccc3c(NCCC[N+]3([O-])CCCCC3)c12	> 0.2 µM	0.126 µM	
CC(=O)NC1C(OC2C(CO)OC(OCC3OC(n4ccc(N)nc4=O)C(O)C3O)C(NC(C)=O)C2O)OC(CO)C(O)C1O (configuration not stated)	> 200 µM	11.2 µM	
CC(=O)c1c2c(cc3c1CC1(C3)Cc3ccc4c(c3C1=O)CCC4)CCC2 (configuration not stated)	> 200 µM	40.7 µM	
Cn1c(=O)cc(Nc2ccc(N)cc2)[nH]c1=O	> 200 µM	> 200 µM	
CC12CCC3C(CCC4=CC(OC5OC(CO)C(O)C(O)C5O)CCC43C=O)C1(O)CCC2c1ccc(=O)oc1 (configuration not stated)	> 0.02 µM	0.00316 µM	
O=C1CCC(=O)N1Cc1ccccc1N=[N+]([O-])c1ccccc1CN1C(=O)CCC1=O		> 200 µM	inactive
CCOC(=O)C1Oc2ccc([N+](=O)[O-])c3c2C1(O)CCC3 (configuration not stated)			inactive
CCOC(=O)/C(I)=C/c1cc(OC)c(OC)c(OC)c1	> 141 µM	85.1 µM	
CCOC(=O)c1nc2ccc(C(F)(F)F)cc2[nH]c1=O	> 200 µM	> 200 µM	
O=C(Cc1nc2ccc(C(=O)c3ccccc3)cc2[nH]c1=O)C(=O)Nc1ccc(Br)cc1	> 14.8 µM	> 14.8 µM	
CN1CCn2c(Br)ccc2C1=O	> 1100 µM	64.6 µM	
COc1c(F)c(F)c(/C(O)=C\c2nc3ccccc3[nH]c2=O)c(F)c1F	> 200 µM	195 µM	
COc1ccc(C2(OC)Oc3ccccc3C(=O)C2(O)OC)cc1OC (configuration not stated)	> 200 µM	11.5 µM	
CO/N=C(\C([O-])=N\[n+]1cnn(CC(=O)OC(C)(C)C)c1)c1csc(NC(c2ccccc2)(c2ccccc2)c2ccccc2)n1	> 200 µM	37.2 µM	
Cc1ccc([S+](c2ccccc2)c2cc(C)ccc2C)cc1 (configuration not stated)	> 646 µM	1.17 µM	
CCOC(=O)c1c(NC(=O)CCl)ssc1=S	> 200 µM	50.1 µM	
CSc1nc(SC)c2nc(Nc3ccccc3)sc2n1	> 200 µM	6.17 µM	

Reference: PubChem BioAssay AID179 (DTP/NCI, 2004)
